Measurements as given in US20060045953A1 (priority 2004, published 2006).

Molecular target: T1, hT1R1/hT1R3 umami receptor (Homo sapiens, UniProt Q7RTX0+Q7RTX1)
T1 construct: expressed in transfected cells; host or cells: HEK293 derivative stably expressing Gα15, clone I-17, expression induced with mifepristone
T1 sequence (Q7RTX1 21-841): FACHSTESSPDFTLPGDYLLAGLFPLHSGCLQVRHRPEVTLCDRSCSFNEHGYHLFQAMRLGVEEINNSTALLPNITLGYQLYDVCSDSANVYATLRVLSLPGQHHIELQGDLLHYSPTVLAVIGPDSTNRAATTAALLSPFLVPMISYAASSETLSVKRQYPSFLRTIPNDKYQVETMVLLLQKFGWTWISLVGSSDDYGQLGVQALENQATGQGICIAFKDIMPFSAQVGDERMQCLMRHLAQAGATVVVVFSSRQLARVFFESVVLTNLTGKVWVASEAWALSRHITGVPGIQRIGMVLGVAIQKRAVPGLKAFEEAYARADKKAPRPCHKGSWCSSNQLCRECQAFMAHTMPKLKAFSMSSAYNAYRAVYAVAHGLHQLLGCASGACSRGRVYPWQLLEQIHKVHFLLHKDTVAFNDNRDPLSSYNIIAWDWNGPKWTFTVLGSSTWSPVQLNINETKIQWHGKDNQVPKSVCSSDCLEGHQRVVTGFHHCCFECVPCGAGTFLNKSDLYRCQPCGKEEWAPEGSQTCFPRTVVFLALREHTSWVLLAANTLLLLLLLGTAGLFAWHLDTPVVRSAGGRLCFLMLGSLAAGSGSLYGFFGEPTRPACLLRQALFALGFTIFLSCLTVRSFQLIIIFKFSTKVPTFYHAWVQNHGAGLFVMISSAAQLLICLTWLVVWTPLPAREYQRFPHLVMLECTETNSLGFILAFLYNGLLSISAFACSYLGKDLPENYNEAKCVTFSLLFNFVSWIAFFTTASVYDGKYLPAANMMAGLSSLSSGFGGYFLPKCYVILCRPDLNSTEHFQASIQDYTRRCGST
T1 sequence (Q7RTX0 21-852): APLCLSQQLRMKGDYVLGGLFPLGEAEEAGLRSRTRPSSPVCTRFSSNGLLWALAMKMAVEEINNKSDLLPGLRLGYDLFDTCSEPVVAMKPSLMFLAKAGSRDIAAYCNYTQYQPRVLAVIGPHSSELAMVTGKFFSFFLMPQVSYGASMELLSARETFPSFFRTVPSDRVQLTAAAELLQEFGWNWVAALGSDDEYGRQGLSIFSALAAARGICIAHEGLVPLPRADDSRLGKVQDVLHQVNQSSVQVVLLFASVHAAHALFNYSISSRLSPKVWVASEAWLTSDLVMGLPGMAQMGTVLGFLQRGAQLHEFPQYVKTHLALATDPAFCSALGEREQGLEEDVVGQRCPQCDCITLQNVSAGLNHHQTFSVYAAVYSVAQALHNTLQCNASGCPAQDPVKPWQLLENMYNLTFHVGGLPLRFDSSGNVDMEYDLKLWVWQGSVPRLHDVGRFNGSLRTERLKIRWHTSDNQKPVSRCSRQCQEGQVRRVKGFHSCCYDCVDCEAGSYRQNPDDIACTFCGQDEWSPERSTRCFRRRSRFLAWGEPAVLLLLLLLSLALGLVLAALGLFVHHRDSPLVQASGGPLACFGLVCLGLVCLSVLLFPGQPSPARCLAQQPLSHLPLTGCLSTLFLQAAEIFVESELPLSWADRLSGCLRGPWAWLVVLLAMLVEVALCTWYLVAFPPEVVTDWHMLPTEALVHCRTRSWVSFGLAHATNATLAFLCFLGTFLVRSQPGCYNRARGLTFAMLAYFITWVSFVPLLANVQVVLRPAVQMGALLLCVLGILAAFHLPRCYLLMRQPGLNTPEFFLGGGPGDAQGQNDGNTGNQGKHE
Assay: In vitro hT1R1/hT1R3 umami taste receptor activation assay (FLIPR, dose response)
Assay type: cell-based
Conditions: Table A, Umami Amides; read-out: Umami EC50

Compound	EC50 [nM]
CC[C@@H](C)[C@@H](NC(=O)c1ccc2c(c1)OCO2)C(=O)OC [Example A42, (2R,3R)-methyl 2-(benzo[d][1,3]dioxole-5-carboxamido)-3-methylpentanoate]	350
CCCCC(NC(=O)c1ccc2c(c1)OCO2)C(=O)OC (stereo not shown) [Example A43, 2-[(Benzo[1,3]dioxole-5-carbonyl)-amino]-hexanoic acid methyl ester]	490
O=C(N[C@H]1CCCc2ccccc21)c1ccc2c(c1)OCO2 [Example A47, (S)-N-(1,2,3,4-tetrahydronaphthalen-1-yl)benzo[d][1,3]dioxole-5-carboxamide]	1330
CC(CCc1ccccc1)NC(=O)c1ccc2c(c1)OCO2 (stereo not shown) [Example A48]	1510
CCCC(NC(=O)c1ccc2c(c1)OCO2)C(=O)OC (stereo not shown) [Example A49, 2-[(Benzo[1,3]dioxole-5-carbonyl)-amino]-pentanoic acid methyl ester]	1540
CCCC(CCC)C(=O)Nc1ccc2c(c1)OCO2 [Example A50, N-(benzo[d][1,3]dioxol-5-yl)-2-propylpentanamide]	1570
CCCOC(=O)[C@@H](CC(C)C)NC(=O)c1ccc2c(c1)OCO2 [Example A51, (R)-propyl 2-(benzo[d][1,3]dioxole-5-carboxamido)-4-methylpentanoate]	1580
CCCC(CCC)NC(=O)c1ccc2c(c1)CCO2 [Example A52, N-(heptan-4-yl)-2,3-dihydrobenzofuran-5-carboxamide]	1650
CCCC(CC)NC(=O)c1ccc2c(c1)OCO2 (stereo not shown) [Example A53, N-(hexan-3-yl)benzo[d][1,3]dioxole-5-carboxamide]	1830
CCCCC(NC(=O)c1ccc(OC)c(Cl)c1)C(=O)OC (stereo not shown) [Example A55, methyl 2-(3-chloro-4-methoxybenzamido)hexanoate]	120
C=Cc1ccc(C(=O)N[C@H](CC(C)C)C(=O)OC)cc1 [Example A57, (R)-methyl 4-methyl-2-(4-vinylbenzamido)pentanoate]	180
COc1ccc(CNC(=O)c2ccncc2-n2cccc2)c(OC)c1 [Example A66, N-(2,4-dimethoxybenzyl)-3-(1H-pyrrol-1-yl)isonicotinamide]	290
CCCC(CCC)NC(=O)c1ccc(OCC)cc1 [Example A68, 4-ethoxy-N-(heptan-4-yl)benzamide]	320
CCCC(CCC)NC(=O)c1cccc(C(F)(F)F)c1 [Example A70, N-(heptan-4-yl)-3-(trifluoromethyl)benzamide]	330
CCCC(CCC)NC(=O)c1ccc(CC)cc1 [Example A71, 4-ethyl-N-(heptan-4-yl)benzamide]	340
CCCC(CCC)NC(=O)c1ccc(SC)cc1 [Example A75, N-(heptan-4-yl)-4-(methylthio)benzamide]	390
COc1ccc(C(=O)NC(C)CCc2ccccc2)cc1C (stereo not shown) [Example A76, 4-methoxy-3-methyl-N-(4-phenylbutan-2-yl)benzamide]	400
COc1ccc(C(=O)NC2CCCCC2C)cc1Cl (stereo not shown) [Example A77, 3-chloro-4-methoxy-N-(2-methylcyclohexyl)benzamide]	440
C=Cc1ccc(C(=O)NC(CCC)CCC)cc1 [Example A78, N-(heptan-4-yl)-4-vinylbenzamide]	460
CCCC(CCC)NC(=O)c1ccc(OC)cc1 [Example A79, N-(heptan-4-yl)-4-methoxybenzamide]	460
CCCC(C)NC(=O)c1ccc(OC)c(Cl)c1 (stereo not shown) [Example A80, 3-chloro-4-methoxy-N-(pentan-2-yl)benzamide]	470
CCCOc1ccc(C(=O)N[C@H](CC(C)C)C(=O)OC)cc1 [Example A82, (R)-methyl 4-methyl-2-(4-propoxybenzamido)pentanoate]	510
CCCC(CCC)NC(=O)c1cccc(C)c1 [Example A83, (heptan-4-yl)-3-methylbenzamide]	520
CCCC(CCC)NC(=O)c1cccc(OC)c1O [Example A84, N-(heptan-4-yl)-2-hydroxy-3-methoxybenzamide]	530
COc1cccc(C(=O)NC2CCCc3ccccc32)c1O (stereo not shown) [Example A87, 2-hydroxy-3-methoxy-N-(1,2,3,4-tetrahydronaphthalen-1-yl)benzamide]	540

Further lines, results first:

EC50 [nM]	Compound
1320	COC(=O)[C@@H](CC(C)C)NC(=O)c1ccc2c(c1)CCO2 [Example A46, (R)-methyl 2-(2,3-dihydrobenzofuran-5-carboxamido)-4-methylpentanoate]
120	CCCC(CC)NC(=O)c1ccc(SC)c(C)c1 (stereo not shown) [Example A54, N-(hexan-3-yl)-3-methyl-4-(methylthio)benzamide]
140	CCCC(CC)NC(=O)c1ccc(C)c(C)c1 (stereo not shown) [Example A56, N-(hexan-3-yl)-3,4-imethylbenzamide]
200	CCC(NC(=O)c1ccc(OC)c(C)c1)C(C)C (stereo not shown) [Example A58, 4-methoxy-3-methyl-N-(2-methylpentan-3-yl)benzamide]
200	CCCC(NC(=O)c1ccc(OC)c(C)c1)C(C)C (stereo not shown) [Example A59, 4-methoxy-3-methyl-N-(2-methylhexan-3-yl)benzamide]
200	CCSc1ccc(C(=O)N[C@H](CC(C)C)C(=O)OC)cc1 [Example A60, (R)-methyl 2-(4-(ethylthio)benzamido)-4-methylpentanoate]
220	CCCC(CCC)NC(=O)c1ccc(OC)c(C)c1 [Example A61, N-(heptan-4-yl)-4-methoxy-3-methylbenzamide]
250	COC(=O)[C@H](NC(=O)c1ccc(C)c(C)c1)C(C)C [Example A62, (R)-methyl 2-(3,4-dimethylbenzamido)-3-methylbutanoate]
250	COC(=O)[C@@H](CC(C)C)NC(=O)c1ccc(OC)c(C)c1 [Example A63, (R)-methyl 2-(4-methoxy-3-methylbenzamido)-4-methylpentanoate]
260	CCOc1ccc(C(=O)NC(CC)CC)cc1C [Example A64, 4-ethoxy-3-methyl-N-(pentan-3-yl)benzamide]
290	COC[C@@H](CC(C)C)NC(=O)c1ccc(SC)c(C)c1 [Example A65, (R)-N-(1-methoxy-4-methylpentan-2-yl)-3-methyl-4-(methylthio)benzamide]
320	COC(=O)[C@@H](CC(C)C)NC(=O)c1ccc(C)cc1 [Example A69, (R)-methyl 4-methyl-2-(4-methylbenzamido)pentanoate]
340	CCOc1ccc(C(=O)NC(CC)CC(C)C)cc1C (stereo not shown) [Example A72, 4-ethoxy-3-methyl-N-(5-methylhexan-3-yl)benzamide]
340	COC(=O)[C@@H](CC(C)C)NC(=O)c1ccc(C)c(OC)c1 [Example A73, (R)-methyl 2-(3-methoxy-4-methylbenzamido)-4-methylpentanoate]
350	CCCC(CCC)NC(=O)c1ccc(OC)c(F)c1 [Example A74, 3-fluoro-N-(heptan-4-yl)-4-methoxybenzamide]
500	CCCC(CC)NC(=O)c1ccc(C)c(SC)c1 (stereo not shown) [Example A81, N-(hexan-3-yl)-4-methyl-3-(methylthio)benzamide]
530	COC(=O)[C@@H](CC(C)C)NC(=O)c1cc(C)cc(C)c1 [Example A85, (R)-methyl 2-(3,5-dimethylbenzamido)-4-methylpentanoate]
550	CSc1ccc(C(=O)NC(C(C)C)C(C)C)cc1C [Example A88, N-(2,4-dimethylpentan-3-yl)-3-methyl-4-(methylthio)benzamide]
